The text below walks through data of patent publication US20100119599A1 (ARCHER PHARMACEUTICALS, INC., priority 2006, published 2010).

The test system of one experiment is Aβ1-40. Briefly: Measurement of Aβ1-40 in culture medium of 7W WT APP751 CHO cells by ELISA. Type of experiment: cell-based, Chinese hamster. The settings on record: for Aβ1-40 (% of control): CHO cells that overexpress APP751, zero = below the detection limit of the assay; for activity at 5 µM: Cricetulus griseus, Table 1, 5 μM test compound, CHO cells stably transfected with human APP751, culture medium, ELISA, control DMSO, 0 = no detectable amount. Background: ELISA stands for enzyme-linked immunosorbent assay.

The test system of another experiment is Aβ1-42. Description: Measurement of Aβ1-42 in culture medium of 7W WT APP751 CHO cells by ELISA. Type of experiment: cell-based, Chinese hamster. To be noted: for Aβ1-42 (% of control): CHO cells that overexpress APP751, zero = below the detection limit of the assay; for activity at 5 µM: Cricetulus griseus, Table 1, 5 μM test compound, CHO cells stably transfected with human APP751, culture medium, ELISA, control DMSO, 0 = no detectable amount, read-out: Aβ1-42 (% of control).

Where a name gives a salt, the structure may show the parent alone.
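Further: 5 µM test compound but RI-coded compounds at 10 µM for 24 hours.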

Turning to `CC1=C(C(=O)Nc2ccccc2)C(c2ccsc2)C(C#N)=C(SCC(=O)Nc2ccc(F)cc2)N1` (stereo not drawn) [RI_77], in the experiment with Aβ1-40, the “Aβ1-40 (% of control)” value is given as 16.9 % of control. Moreover, the “Aβ1-42 (% of control)” value in the experiment on Aβ1-42 is 25.4 % of control.

For `N#CC1=C(N)n2c(s/c(=C\c3ccccc3Cl)c2=O)=C(C#N)C1c1ccccc1Cl` (stereo not drawn) [ST006953], the “Aβ1-40 (% of control)” value in the experiment with Aβ1-40 was 47.74 % of control. The “Aβ1-42 (% of control)” value in the experiment on Aβ1-42 is recorded as 83.98 % of control.

For `CCCc1ccc(NC(=O)CSC2=C(C#N)C(c3ccsc3)C(C(=O)Nc3ccccc3)=C(C)N2)cc1` (stereo not drawn) [RI_52], the “Aβ1-40 (% of control)” value in the experiment with Aβ1-40 is 50.3 % of control. In addition, the “Aβ1-42 (% of control)” value in the experiment with Aβ1-42 is reported as 61.6 % of control.

For the compound `CCC(C)c1ccccc1NC(=O)CSC1=C(C#N)C(c2ccsc2)C(C(=O)Nc2ccccc2)=C(C)N1` (stereo not drawn) [RI_68], in the experiment with Aβ1-40, the “Aβ1-40 (% of control)” value is 74.6 % of control. Also, the “Aβ1-42 (% of control)” value with Aβ1-42 is 100 % of control.

In the case of `CCCCc1ccc(NC(=O)CSC2=C(C#N)C(c3ccsc3)C(C(=O)Nc3ccccc3)=C(C)N2)cc1` (stereo not drawn) [RI_65], the “Aβ1-40 (% of control)” value with Aβ1-40 was 51.7 % of control. For the same compound, the “Aβ1-42 (% of control)” value in the experiment on Aβ1-42 is 38.1 % of control.

In the case of `COC(=O)C1=CNC=C(C(=O)OC)C1c1cccc(OC)c1` [ST052261, methyl 5-(methoxycarbonyl)-4-(3-methoxyphenyl)-1,4-dihydropyridine-3-carboxylate], in the experiment with Aβ1-40, the “Aβ1-40 (% of control)” value was 38.04 % of control. In the experiment on Aβ1-42, the “Aβ1-42 (% of control)” value is on record as 57.24 % of control.

Regarding `N#CC1=C(N)n2c(s/c(=C\c3cccc(Br)c3)c2=O)=C(C#N)C1c1cccc(Br)c1` (stereo not drawn) [RI_96], the “Aβ1-40 (% of control)” value with Aβ1-40 is on record as 71.3 % of control. Moreover, in the experiment with Aβ1-42, the “Aβ1-42 (% of control)” value is reported as 70.5 % of control.

Regarding `CCN(CC)c1ccc(C2C(C(=O)OC)=C(C)NC3=C2C(=O)CC(c2ccccc2)C3)cc1` (stereo not drawn) [ST013129, methyl 4-[4-(diethylamino)phenyl]-2-methyl-5-oxo-7-phenyl-1,4,6,7,8-pentahydroquinoline-3-carboxylate], the activity at 5 µM in the experiment on Aβ1-40 came to 64.3%; in the experiment on Aβ1-42 it was 90.6%.

As to `CCC(C)OC(=O)C1=C(C)NC2=C(C(=O)CC(c3ccc(Cl)cc3)C2)C1c1cc(OC)c(OC)c(OC)c1` (stereo not drawn) [ST017091, methylpropyl 7-(4-chlorophenyl)-2-methyl-5-oxo-4-(3,4,5-trimethoxyphenyl)-1,4,6,7,8-pentahydroquinoline-3-carboxylate], the activity at 5 µM in the experiment on Aβ1-40 is 65.7%; in the experiment with Aβ1-42, 91%.

`COc1cc(C2C(C(=O)OC3CCCCC3)=C(C)NC3=C2C(=O)CC(c2ccccc2)C3)ccc1O` (stereo not drawn) [ST013387, cyclohexyl 4-(4-hydroxy-3-methoxyphenyl)-2-methyl-5-oxo-7-phenyl-1,4,6,7,8-pentahydroquinoline-3-carboxylate]: the activity at 5 µM was determined as 40% in the experiment on Aβ1-40 and 26.4% in the experiment on Aβ1-42.

`CC1=C(C(=O)OC(C)C)C(c2cccnc2)C2=C(CCCC2=O)N1` (stereo not drawn) [ST013077, methylethyl 2-methyl-5-oxo-4-(3-pyridyl)-1,4,6,7,8-pentahydroquinoline-3-carboxylate]: the activity at 5 µM in the experiment with Aβ1-40 was found to be 27.4%; in the experiment on Aβ1-42, 97.8%.

Consider `CCCCOC(=O)C1=C(C)NC2=C(C(=O)CCC2)C1c1ccc(Cl)cc1` (stereo not drawn) [ST017175, butyl 4-(4-chlorophenyl)-2-methyl-5-oxo-1,4,6,7,8-pentahydroquinoline-3-carboxylate], for which the figures for the activity at 5 µM in the experiment with Aβ1-40 and in the experiment on Aβ1-42 were 59.8% and 34.5%, respectively.

In the case of `CCc1cccc(NC(=O)CSC2=C(C#N)C(c3ccc(-c4ccccn4)s3)C(C(=O)Nc3ccccc3)=C(C)N2)c1` (stereo not drawn) [RI_86], the “Aβ1-40 (% of control)” value in the experiment with Aβ1-40 is listed as 32.8 % of control. Further, the “Aβ1-42 (% of control)” value in the experiment with Aβ1-42 is 21.8 % of control.

Regarding `CC1(C)CC(=O)C2=C(C1)N(Cc1ccccc1)C(N)=C(C#N)C2c1ccc(Cl)cc1` (stereo not drawn) [ST047623, 2-amino-4-(4-chlorophenyl)-7,7-dimethyl-5-oxo-1-benzyl-1,4,6,7,8-pentahydroquinoline-3-carbonitrile], the figures for the activity at 5 µM in the experiment on Aβ1-40 and in the experiment on Aβ1-42 were 95.4% and 44.4%, respectively.

For `COc1ccc(C2C(C(=O)OC3CCCCC3)=C(C)NC3=C2C(=O)CC(C)(C)C3)cc1O` (stereo not drawn) [ST052325, cyclohexyl 4-(3-hydroxy-4-methoxyphenyl)-2,7,7-trimethyl-5-oxo-1,4,6,7,8-pentahydroquinoline-3-carboxylate], the activity at 5 µM in the experiment on Aβ1-40 was determined as 41.7%; in the experiment with Aβ1-42, 33%.

Take `CCCCOC(=O)C1=C(C)NC2=C(C(=O)CC(C)(C)C2)C1c1ccc(Cl)c(Cl)c1` (stereo not drawn) [ST215419, butyl 4-(3,4-dichlorophenyl)-2,7,7-trimethyl-5-oxo-1,4,6,7,8-pentahydroquinoline-3-carboxylate]: the activity at 5 µM in the experiment on Aβ1-40 and in the experiment on Aβ1-42 was 0% each time.

`CC1=C(C(=O)Nc2ccccc2)C(c2ccncc2)C(C#N)=C(S)N1` (stereo not drawn) [ST007526, (5-cyano-2-methyl-4-(4-pyridyl)-6-sulfanyl(3-1,4-dihydropyridyl))-N-benzamide, 4-methylmorpholine salt]: the “Aβ1-40 (% of control)” value with Aβ1-40 is 72.5 % of control. In the experiment with Aβ1-42, the “Aβ1-42 (% of control)” value is reported as 81.23 % of control.

Take `CCSCCOC(=O)C1=C(C)NC2=C(C(=O)CCC2)C1c1ccc(C(=O)OC)cc1` (stereo not drawn) [ST017106, methyl 4-{3-[(2-ethylthioethyl)oxycarbonyl]-2-methyl-5-oxo-4-1,4,6,7,8-pentahydroquinolyl}benzoate]: the activity at 5 µM with Aβ1-40 turned out to be 36.8%; with Aβ1-42, 0%.

Consider `CCOC(=O)C1=C(C)NC2=C(C(=O)CCC2)C1c1cc2c(cc1[N+](=O)[O-])OCO2` (stereo not drawn) [ST212479, ethyl 2-methyl-4-(6-nitro(2H-benzo[d]1,3-dioxolan-5-yl))-5-oxo-1,4,6,7,8-pentahydroquinoline-3-carboxylate], for which the activity at 5 µM in the experiment on Aβ1-40 was determined as 60.2%; with Aβ1-42 it was 29.3%.

`COC(=O)C1=C(C)NC2=C(C(=O)CC(c3ccccc3Cl)C2)C1c1ccc([N+](=O)[O-])cc1` (stereo not drawn) [ST015176, methyl 7-(2-chlorophenyl)-2-methyl-4-(4-nitrophenyl)-5-oxo-1,4,6,7,8-pentahydroquinoline-3-carboxylate]: the activity at 5 µM with Aβ1-40 turned out to be 17.4%; with Aβ1-42, 76.4%.

On to `COc1ccccc1NC(=O)C1=C(C)NC2=C(C(=O)CCC2)C1c1ccc(Cl)cc1` (stereo not drawn) [ST052292, [4-(4-chlorophenyl)-2-methyl-5-oxo(3-1,4,6,7,8-pentahydroquinolyl)]-N-(2-methoxyphenyl)carboxamide], for which the values for the activity at 5 µM with Aβ1-40 and in the experiment with Aβ1-42 were 85.8% and 68.2%, respectively.

With `CC1(C)CC(=O)C2=C(C1)N(c1ccc(Br)cc1)C(N)=C(C#N)C2c1ccc(C(C)(C)C)s1` (stereo not drawn) [ST052026, 2-amino-4-[5-(tert-butyl)(2-thienyl)]-1-(4-bromophenyl)-7,7-dimethyl-5-oxo-1,4,6,7,8-pentahydroquinoline-3-carbonitrile], the values for the activity at 5 µM in the experiment on Aβ1-40 and in the experiment on Aβ1-42 were 13.5% and 25.3%, respectively.

As to `COC(=O)CSC1=C(C#N)C(c2ccc(Cl)cc2)C(C(=O)OC(C)(C)C)=C(C)N1` (stereo not drawn) [ST050862, methyl 2-{5-[(tert-butyl)oxycarbonyl]-4-(4-chlorophenyl)-3-cyano-6-methyl-2-1,4-dihydropyridylthio}acetate], the “Aβ1-40 (% of control)” value in the experiment on Aβ1-40 is listed as 65.24 % of control. In addition, the “Aβ1-42 (% of control)” value in the experiment on Aβ1-42 is reported as 56.21 % of control.

In the case of `CCOCCOC(=O)C1=C(C)NC2=C(C(=O)CCC2)C1c1ccc(CC)cc1` (stereo not drawn) [ST013344, 2-ethoxyethyl 4-(4-ethylphenyl)-2-methyl-5-oxo-1,4,6,7,8-pentahydroquinoline-3-carboxylate], the figures for the activity at 5 µM with Aβ1-40 and in the experiment on Aβ1-42 were 54.4% and 86.6%, respectively.
